# Patent US8344025B2, “Oxalic acid derivatives and use thereof as physiological cooling active ingredients” (Symrise AG, priority 2007, dated 2013)
# Test system: panel of experts
# Assay: Organoleptic test of cooling action in confectioner's fondant, rated by a panel of experts
# Format: in vivo
# Details: scale from 1 (no cooling action) to 9 (extremely strong cooling action), 0.05 wt. % relative to the complete preparation
# Procedure: The compounds according to Examples 1 to 12 were tested for their organoleptic properties, in particular their cooling action. To this end, they were dissolved, in each case in a specific final concentration, in a mass prepared from sucrose (saccharose) and water (confectioner's fondant, supplier Nordzucker AG, Nordstemmen) and evaluated by a panel of experts. Sensory impressions were rated and the cooling action was assessed on a scale from 1 (no cooling action) to 9 (extremely strong cooling action). The results were convincing in every case.
compound,measurement,value
"CNC(=O)C(=O)O[C@@H]1C[C@H](C)CC[C@H]1C(C)C [Example 2, L-menthyl N-methyl oxamate]",cooling action,6
